Results taken from patent publication US10689327B2, “Prodrug amino acid derivative” (TAISHO PHARMACEUTICALS CO., LTD., priority 2016, dated 2020).

Experiment: Stability test in solution (pH 1.2 and pH 6.5)
Assay type: physicochemical
Details: 1 hour; for Compound's percent residue (%) pH 6.5: 20 mM phosphate buffer pH 6.5, 37° C.; for Compound's percent residue (%) pH 1.2: hydrochloric acid solution pH 1.2, 37° C.
Experimental: Test 2: Stability Test in Solution
A test to determine the stability of Inventive Compounds (I-A) or (I) in a hydrochloric acid solution (pH 1.2) and 20 mM phosphate buffer (pH 6.5) was conducted in accordance with the following method.
A compound was dissolved in a hydrochloric acid solution (pH 1.2) containing hydrochloric acid and sodium chloride or a 20 mM phosphate buffer (pH 6.5) containing disodium hydrogenphosphate, sodium dihydrogenphosphate and sodium chloride to prepare a solution with a concentration of about 50 ng/mL (near the saturated concentration when the compound was not dissolved). The solution was incubated at 37° C. for 1 hour and the compound's concentration before and after the incubation was quantified by high-performance liquid chromatography to calculate the percent residue of the compound. Compounds having low solubility were assessed as being not applicable.
The percent residues of representative compounds in the hydrochloric acid solution (pH 1.2) and the 20 mM phosphate buffer (pH 6.5) are shown in the following Table 2.

| Compound's percent residue (%) pH 6.5 [%] | Compound's percent residue (%) pH 1.2 [%] | SMILES |
| --- | --- | --- |
| 100 | 106 | CC(OC(=O)O[C@@H]1C[C@@H]2CC[C@@]1(C)C2(C)C)OC(=O)[C@@]1(N)[C@H]2[C@@H](C[C@H]1OCc1ccc(F)cc1)[C@]2(F)C(=O)O (stereo partly drawn) [Example 17-B, (1R,2R,3R,5R,6R)-2-Amino-6-fluoro-3-[(4-fluorophenyl)methoxy]-2-({1-[({[(1S,2R,4S)-1,7,7-trimethylbicyclo[2.2.1]heptan-2-yl]oxy}carbonyl)oxy]ethoxy}carbonyl)bicyclo[3.1.0]hexane-6-carboxylic acid] |
| 112 |  | CCCO[C@@H]1C[C@@H]2[C@H]([C@]1(N)C(=O)OC(C)OC(=O)O[C@@H]1C[C@@H]3CC[C@@]1(C)C3(C)C)[C@@]2(F)C(=O)O (stereo partly drawn) [Example 18-B, (1R,2R,3R,5R,6R)-2-Amino-6-fluoro-3-propoxy-2-({1-[({[(1S,2R,4S)-1,7,7-trimethylbicyclo[2.2.1]heptan-2-yl]oxy}carbonyl)oxy]ethoxy}carbonyl)bicyclo[3.1.0]hexane-6-carboxylic acid] |
| 99 | 98 | CC(OC(=O)O[C@H]1C[C@H]2CC[C@]1(C)C2(C)C)OC(=O)[C@@]1(N)[C@H]2[C@@H](C[C@H]1OCc1ccc(F)cc1)[C@]2(F)C(=O)O (stereo partly drawn) [Example 19-A, (1R,2R,3R,5R,6R)-2-Amino-6-fluoro-3-[(4-fluorophenyl)methoxy]-2-({1-[({[(1R,2S,4R)-1,7,7-trimethylbicyclo[2.2.1]heptan-2-yl]oxy}carbonyl)oxy]ethoxy}carbonyl)bicyclo[3.1.0]hexane-6-carboxylic acid] |
| 100 | 106 | CCCO[C@@H]1C[C@@H]2[C@H]([C@]1(N)C(=O)OC(C)OC(=O)O[C@H]1C[C@H]3CC[C@]1(C)C3(C)C)[C@@]2(F)C(=O)O (stereo partly drawn) [Example 20, (1R,2R,3R,5R,6R)-2-Amino-6-fluoro-3-propoxy-2-({1-[({[(1R,2S,4R)-1,7,7-trimethylbicyclo[2.2.1]heptan-2-yl]oxy}carbonyl)oxy]ethoxy}carbonyl)bicyclo[3.1.0]hexane-6-carboxylic acid] |
| 98 | 101 | CC(OC(=O)O[C@H]1C(C)(C)[C@H]2CC[C@]1(C)C2)OC(=O)[C@@]1(N)[C@H]2[C@@H](C[C@H]1OCc1ccc(F)cc1)[C@]2(F)C(=O)O (stereo partly drawn) [Example 21, (1R,2R,3R,5R,6R)-2-Amino-6-fluoro-3-[(4-fluorophenyl)methoxy]-2-({1-[({[(1R,2R,4S)-1,3,3-trimethylbicyclo[2.2.1]heptan-2-yl]oxy}carbonyl)oxy]ethoxy}carbonyl)bicyclo[3.1.0]hexane-6-carboxylic acid] |
| 102 | 100 | C[C@@H](OC(=O)C12CC3CC(CC(C3)C1)C2)OC(=O)[C@@]1(N)[C@H]2[C@@H](C[C@H]1OC1CCCC1)[C@]2(F)C(=O)O [Example 30, (1R,2R,3R,5R,6R)-2-amino-3-(cyclopentyloxy)-6-fluoro-2-({(1S)-1-[(tricyclo[3.3.1.1^3,7]decane-1-carbonyl)oxy]ethoxy}carbonyl)bicyclo[3.1.0]hexane-6-carboxylic acid] |
| 97 | 96 | CC(C)[C@@H]1CC[C@@H](C)C[C@H]1OC(=O)O[C@H](C)OC(=O)[C@@]1(N)[C@H]2[C@@H](C[C@H]1OCc1cccc(Cl)n1)[C@]2(F)C(=O)O [Example 33, (1R,2R,3R,5R,6R)-2-amino-3-[(6-chloropyridin-2-yl)methoxy]-6-fluoro-2-({(1R)-1-[({[(1R,2S,5R)-5-methyl-2-(propan-2-yl)cyclohexyl]oxy}carbonyl)oxy]ethoxy}carbonyl)bicyclo[3.1.0]hexane-6-carboxylic acid] |
| 94 | 100 | Cc1ccc(CO[C@@H]2C[C@@H]3[C@H]([C@]2(N)C(=O)O[C@@H](C)OC(=O)O[C@@H]2C[C@H](C)CC[C@H]2C(C)C)[C@@]3(F)C(=O)O)cc1 [Example 34, (1R,2R,3R,5R,6R)-2-amino-6-fluoro-3-[(4-methylphenyl)methoxy]-2-({(1R)-1-[({[(1R,2S,5R)-5-methyl-2-(propan-2-yl)cyclohexyl]oxy}carbonyl)oxy]ethoxy}carbonyl)bicyclo[3.1.0]hexane-6-carboxylic acid] |

Second part, the compound before the results:

| SMILES | Compound's percent residue (%) pH 6.5 [%] | Compound's percent residue (%) pH 1.2 [%] |
| --- | --- | --- |
| C[C@@H](OC(=O)C12CC3CC(CC(C3)C1)C2)OC(=O)[C@@]1(N)[C@H]2[C@@H](C[C@H]1OCc1ccc(C(F)(F)F)cc1)[C@]2(F)C(=O)O [Example 22, (1R,2R,3R,5R,6R)-2-amino-6-fluoro-2-({(1S)-1-[(tricyclo[3.3.1.1^3,7]decane-1-carbonyl)oxy]ethoxy}carbonyl)-3-{[4-(trifluoromethyl)phenyl]methoxy}bicyclo[3.1.0]hexane-6-carboxylic acid] | 94 | 96 |
| C[C@@H](OC(=O)C12CC3CC(CC(C3)C1)C2)OC(=O)[C@@]1(N)[C@H]2[C@@H](C[C@H]1OCc1cccc(F)c1)[C@]2(F)C(=O)O [Example 23, (1R,2R,3R,5R,6R)-2-amino-6-fluoro-3-[(3-fluorophenyl)methoxy]-2-({(1S)-1-[(tricyclo[3.3.1.1^3,7]decane-1-carbonyl)oxy]ethoxy}carbonyl)bicyclo[3.1.0]hexane-6-carboxylic acid] | 100 | 101 |
| C[C@@H](OC(=O)C12CC3CC(CC(C3)C1)C2)OC(=O)[C@@]1(N)[C@H]2[C@@H](C[C@H]1OCc1cccc(Cl)n1)[C@]2(F)C(=O)O [Example 24, (1R,2R,3R,5R,6R)-2-amino-3-[(6-chloropyridin-2-yl)methoxy]-6-fluoro-2-({(1S)-1-[(tricyclo[3.3.1.1^3,7]decane-1-carbonyl)oxy]ethoxy}carbonyl)bicyclo[3.1.0]hexane-6-carboxylic acid] | 96 | 95 |
| COc1cc([C@@H](C)O[C@@H]2C[C@@H]3[C@H]([C@]2(N)C(=O)O[C@@H](C)OC(=O)C24CC5CC(CC(C5)C2)C4)[C@@]3(F)C(=O)O)ccc1F [Example 25, (1R,2R,3R,5R,6R)-2-amino-6-fluoro-3-[(1R)-1-(4-fluoro-3-methoxyphenyl)ethoxy]-2-({(1S)-1-[(tricyclo[3.3.1.1^3,7]decane-1-carbonyl)oxy]ethoxy}carbonyl)bicyclo[3.1.0]hexane-6-carboxylic acid] | 99 | 98 |
| C[C@@H](OC(=O)C12CC3CC(CC(C3)C1)C2)OC(=O)[C@@]1(N)[C@H]2[C@@H](C[C@H]1OCc1ccc(Cl)cn1)[C@]2(F)C(=O)O [Example 26, (1R,2R,3R,5R,6R)-2-amino-3-[(5-chloropyridin-2-yl)methoxy]-6-fluoro-2-({(1S)-1-[(tricyclo[3.3.1.1^3,7]decane-1-carbonyl)oxy]ethoxy}carbonyl)bicyclo[3.1.0]hexane-6-carboxylic acid] | 94 | 97 |
| C[C@@H](OC(=O)C12CC3CC(CC(C3)C1)C2)OC(=O)[C@@]1(N)[C@H]2[C@@H](C[C@H]1OCc1ccc(Cl)nc1)[C@]2(F)C(=O)O [Example 27, (1R,2R,3R,5R,6R)-2-amino-3-[(6-chloropyridin-3-yl)methoxy]-6-fluoro-2-({(1S)-1-[(tricyclo[3.3.1.1^3,7]decane-1-carbonyl)oxy]ethoxy}carbonyl)bicyclo[3.1.0]hexane-6-carboxylic acid] | 101 | 100 |
| CC(C)CCO[C@@H]1C[C@@H]2[C@H]([C@]1(N)C(=O)O[C@@H](C)OC(=O)C13CC4CC(CC(C4)C1)C3)[C@@]2(F)C(=O)O [Example 29, (1R,2R,3R,5R,6R)-2-amino-6-fluoro-3-(3-methylbutoxy)-2-({(1S)-1-[(tricyclo[3.3.1.1^3,7]decane-1-carbonyl)oxy]ethoxy}carbonyl)bicyclo[3.1.0]nexane-6-carboxylic acid] | 103 | 102 |
| CC(C)(C)C(=O)OCOC(=O)[C@@]1(N)[C@H]2[C@@H](C[C@H]1OCc1ccc(F)cc1)[C@]2(F)C(=O)O [Example 35, (1R,2R,3R,5R,6R)-2-amino-2-({[(2,2-dimethylpropanoyl)oxy]methoxy}carbonyl)-6-fluoro-3-[(4-fluorophenyl)methoxy]bicyclo[3.1.0]hexane-6-carboxylic acid] | 97 | 100 |
| N[C@]1(C(=O)OCOC(=O)c2ccccc2)[C@H]2[C@@H](C[C@H]1OCc1ccc(F)cc1)[C@]2(F)C(=O)O [Example 36, (1R,2R,3R,5R,6R)-2-amino-2-{[(benzoyloxy)methoxy]carbonyl}-6-fluoro-3-[(4-fluorophenyl)methoxy]bicyclo[3.1.0]hexane-6-carboxylic acid] | 99 | 100 |
| N[C@]1(C(=O)OCOC(=O)C2CCCCC2)[C@H]2[C@@H](C[C@H]1OCc1ccc(F)cc1)[C@]2(F)C(=O)O [Example 37, (1R,2R,3R,5R,6R)-2-amino-2-({[(cyclohexanecarbonyl)oxy]methoxy}carbonyl)-6-fluoro-3-[(4-fluorophenyl)methoxy]bicyclo[3.1.0]hexane-6-carboxylic acid] | 96 | 102 |
